Assay results: ChEMBL document CHEMBL1201862, “PubChem BioAssay data set” (2004)
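Method: 48-hour compound exposure of cells in 96-well plates, five concentrations, linear interpolation of endpoints. Here, GI50 denotes the concentration required for 50% inhibition of growth.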 The source made the active and inactive calls. Cut-off read from the data, not from the text of the source: active = GI50 up to about 1.1 µM and inactive = higher.

Tests used:
Test in all cases: NCI-60 cell line screen, 48 h
NCI-H226 = tested on: NCI-H226
M14 = tested on: M14
K562 = tested on: K562
SF-268 = tested on: SF-268
HOP-62 = tested on: HOP-62
HCT-15 = tested on: HCT-15
SNB-19 = tested on: SNB-19
RPMI-8226 = tested on: RPMI-8226
IGROV-1 = tested on: IGROV-1
HCC 2998 = tested on: HCC 2998
SK-MEL-28 = tested on: SK-MEL-28
SW-620 = tested on: SW-620
A498 = tested on: A498
ACHN = tested on: ACHN
UACC-257 = tested on: UACC-257
SF-295 = tested on: SF-295
RXF 393 = tested on: RXF 393
HOP-92 = tested on: HOP-92
HCT-116 = tested on: HCT-116
Malme-3M = tested on: Malme-3M

Compound | GI50 (NCI-H226) | GI50 (M14) | GI50 (K562) | GI50 (SF-268) | GI50 (HOP-62) | GI50 (HCT-15) [µM] | GI50 (SNB-19) | GI50 (RPMI-8226) | GI50 (IGROV-1) | GI50 (HCC 2998) | GI50 (SK-MEL-28) | GI50 (SW-620) | GI50 (A498) | GI50 (ACHN) | GI50 (UACC-257) | GI50 (SF-295) | GI50 (RXF 393) | GI50 (HOP-92) | GI50 (HCT-116) | GI50 (Malme-3M)
Cc1cnc2nc(-c3ccc4ccccc4c3)cc(O)c2c1 | 0.504 µM (active) | 0.547 µM (active) | 0.251 µM (active) | 2.81 µM (inactive) | 0.851 µM (active) | 0.439 | 0.908 µM (active) | 0.305 µM (active) | 0.843 µM (active) | 1.4 µM (inactive) | > 100 µM (inactive) | 0.359 µM (active) | 0.421 µM (active) | 0.658 µM (active) |  |  |  |  |  | 
O=P1(O)c2ccccc2CS(=O)(=O)Cc2ccccc21 | > 100 µM (inactive) | > 100 µM (inactive) | > 100 µM (inactive) | > 100 µM (inactive) | > 100 µM (inactive) | > 100 | > 100 µM (inactive) |  | > 100 µM (inactive) | > 100 µM (inactive) | > 100 µM (inactive) | > 100 µM (inactive) | > 100 µM (inactive) | > 100 µM (inactive) | > 100 µM (inactive) | > 100 µM (inactive) | > 100 µM (inactive) | > 100 µM (inactive) | > 100 µM (inactive) | 
BrP(NC1CCCCCC1)(c1ccccc1)(c1ccccc1)c1ccccc1 | 13.5 µM (inactive) | 12.4 µM (inactive) | 2.74 µM (inactive) | 2.88 µM (inactive) | 8.79 µM (inactive) | 18.8 | 4.66 µM (inactive) | 1.03 µM (active) | 3.96 µM (inactive) | 2.04 µM (inactive) | 2.4 µM (inactive) | 3.09 µM (inactive) | 0.986 µM (active) | 3.27 µM (inactive) | 1.86 µM (inactive) | 3.03 µM (inactive) | 2.2 µM (inactive) |  | 4.74 µM (inactive) | 2.93 µM (inactive)
C=C1CCC2[C@@H](CCC3[C@]2(C)CCC[C@]3(C)C(=O)OC)C1CCO (some centres undefined) | 14.4 µM (inactive) | 13.6 µM (inactive) | 6 µM (inactive) | 11.3 µM (inactive) | 19.8 µM (inactive) | 11.2 | 14 µM (inactive) | 3.12 µM (inactive) | 13.6 µM (inactive) |  | 13.9 µM (inactive) | 13.1 µM (inactive) | 15.8 µM (inactive) | 14.8 µM (inactive) | 5.98 µM (inactive) | 16.3 µM (inactive) |  | 7.08 µM (inactive) | 5.98 µM (inactive) | 14.9 µM (inactive)
C=C1Oc2nc3ccccc3c(=O)n2C1(C)C | > 100 µM (inactive) | > 100 µM (inactive) | > 100 µM (inactive) | > 100 µM (inactive) | > 100 µM (inactive) | > 100 | > 100 µM (inactive) | > 100 µM (inactive) | > 100 µM (inactive) | > 100 µM (inactive) | > 100 µM (inactive) | > 100 µM (inactive) | > 100 µM (inactive) | > 100 µM (inactive) | > 100 µM (inactive) | > 10 µM (inactive) |  | > 100 µM (inactive) | > 100 µM (inactive) | > 100 µM (inactive)
C=C1CC(C)(COc2ccc3c(C)c(C)c(=O)oc3c2C)OC1=O (centres undefined) | 13.7 µM (inactive) | 2.56 µM (inactive) | 0.811 µM (active) | 4.15 µM (inactive) | 12.5 µM (inactive) | 1.56 | 13.4 µM (inactive) | 0.594 µM (active) | 1.63 µM (inactive) | 1.76 µM (inactive) | 2.07 µM (inactive) | 1.29 µM (inactive) | 2.22 µM (inactive) | 2.33 µM (inactive) | 2.09 µM (inactive) | 5.19 µM (inactive) |  | 1.26 µM (inactive) | 0.879 µM (active) | 1.39 µM (inactive)
COc1ccc2c(OC)c3ccoc3nc2c1O |  | > 100 µM (inactive) | > 100 µM (inactive) | > 100 µM (inactive) | 49.2 µM (inactive) | 37 | > 100 µM (inactive) | 33.7 µM (inactive) | > 100 µM (inactive) | > 100 µM (inactive) | > 100 µM (inactive) | > 100 µM (inactive) | > 100 µM (inactive) | > 100 µM (inactive) | 39.5 µM (inactive) | > 100 µM (inactive) |  |  | > 100 µM (inactive) | > 100 µM (inactive)
CCOC(=O)c1ccc(C(=O)n2ccnc2)[nH]1 | > 100 µM (inactive) | > 100 µM (inactive) | > 100 µM (inactive) | > 100 µM (inactive) | > 100 µM (inactive) | > 100 | > 100 µM (inactive) | > 100 µM (inactive) | > 100 µM (inactive) | > 100 µM (inactive) | > 100 µM (inactive) | > 100 µM (inactive) | > 100 µM (inactive) | > 100 µM (inactive) | > 100 µM (inactive) | > 100 µM (inactive) | 85.7 µM (inactive) |  | > 100 µM (inactive) | > 100 µM (inactive)
CCOC(=O)CC[C@H](NC(=O)c1nc[nH]c1/N=N/N(C)C)C(=O)OCC | > 100 µM (inactive) | > 100 µM (inactive) | > 100 µM (inactive) | > 100 µM (inactive) | > 100 µM (inactive) | > 100 | > 100 µM (inactive) | > 100 µM (inactive) | > 100 µM (inactive) | > 100 µM (inactive) | > 100 µM (inactive) | > 100 µM (inactive) | > 100 µM (inactive) | > 100 µM (inactive) | > 100 µM (inactive) | > 100 µM (inactive) |  |  | > 100 µM (inactive) | > 100 µM (inactive)
O=c1c2ccccc2nc(-c2ccc(Br)cc2)n1NC1OC(CO)C(O)C(O)C1O (centres undefined) | > 100 µM (inactive) | > 100 µM (inactive) | 43.6 µM (inactive) | 69.5 µM (inactive) | > 100 µM (inactive) | > 100 | > 100 µM (inactive) | 72.9 µM (inactive) | > 100 µM (inactive) | 82.4 µM (inactive) | > 100 µM (inactive) | > 100 µM (inactive) | > 100 µM (inactive) | > 100 µM (inactive) | > 100 µM (inactive) | > 100 µM (inactive) |  | > 100 µM (inactive) | > 100 µM (inactive) | > 100 µM (inactive)
C=Cc1cnc([N+](=O)[O-])n1C | > 100 µM (inactive) | 65.5 µM (inactive) |  | 46.7 µM (inactive) | 92 µM (inactive) | 50.2 | > 100 µM (inactive) | 40.1 µM (inactive) |  | 42.7 µM (inactive) | 72.1 µM (inactive) | 62.1 µM (inactive) | 34.3 µM (inactive) | 52 µM (inactive) | > 100 µM (inactive) | 35.2 µM (inactive) |  | 35.8 µM (inactive) | 57.1 µM (inactive) | 38.1 µM (inactive)
CC(=O)[C@@]1(c2ccccc2)CC2(CCN(C)CC2)O[C@H]1C | > 100 µM (inactive) | > 100 µM (inactive) | > 100 µM (inactive) | > 100 µM (inactive) | > 100 µM (inactive) | > 100 | > 100 µM (inactive) | > 100 µM (inactive) | > 100 µM (inactive) |  | > 100 µM (inactive) | > 100 µM (inactive) | > 100 µM (inactive) | > 100 µM (inactive) | > 100 µM (inactive) | > 100 µM (inactive) | > 100 µM (inactive) | > 100 µM (inactive) | > 100 µM (inactive) | > 100 µM (inactive)
COc1ccc(/N=C\c2cc(OC)c(OC)c(OC)c2)cc1 |  |  | 33.7 µM (inactive) | > 100 µM (inactive) | > 100 µM (inactive) | 29.2 | > 100 µM (inactive) | 18.7 µM (inactive) | > 100 µM (inactive) |  | > 100 µM (inactive) | 14.3 µM (inactive) | > 100 µM (inactive) | 94 µM (inactive) | > 100 µM (inactive) |  | > 100 µM (inactive) | > 100 µM (inactive) | > 100 µM (inactive) | > 100 µM (inactive)
C(=C\c1csnn1)/c1cccnc1 | > 100 µM (inactive) | > 100 µM (inactive) | > 100 µM (inactive) | > 100 µM (inactive) | > 100 µM (inactive) | > 100 | > 100 µM (inactive) | > 100 µM (inactive) |  | > 100 µM (inactive) | > 100 µM (inactive) | > 100 µM (inactive) | > 100 µM (inactive) | > 100 µM (inactive) | > 100 µM (inactive) | > 100 µM (inactive) | > 100 µM (inactive) |  | > 100 µM (inactive) | > 100 µM (inactive)
CCN(CCO)C(=O)C1(c2ccccc2)CCCCC1 | > 10 µM (inactive) | > 10 µM (inactive) | > 10 µM (inactive) | > 10 µM (inactive) | > 10 µM (inactive) | > 10 | > 10 µM (inactive) | > 10 µM (inactive) | > 10 µM (inactive) | > 10 µM (inactive) | > 10 µM (inactive) | > 10 µM (inactive) | > 10 µM (inactive) | > 10 µM (inactive) |  | > 10 µM (inactive) | > 10 µM (inactive) |  | > 10 µM (inactive) | > 10 µM (inactive)
O=C(O)C1(Cc2ccc3c(c2)CCC3)Cc2cc3c(cc2C1)CCC3 | > 100 µM (inactive) | > 100 µM (inactive) | > 100 µM (inactive) | > 100 µM (inactive) |  | > 100 | > 100 µM (inactive) | > 100 µM (inactive) | > 100 µM (inactive) | > 100 µM (inactive) | > 100 µM (inactive) | > 100 µM (inactive) | > 100 µM (inactive) | > 100 µM (inactive) |  |  |  | > 100 µM (inactive) | > 100 µM (inactive) | > 100 µM (inactive)
